Experimental data taken from patent publication US6407104B1, “Pyrrolo[1,2-a]pyrazine spla2 inhibitor” (Shionogi & Co., Ltd., priority 1998, dated 2002).
Structures can show the parent of a compound that is named as a salt.

Assays:
[1] = target: T1, recombinant human secretory phospholipase A2 (Homo sapiens, UniProt P14555); assay: Inhibition Test of Human Secretory Phospholipase A2 (chromogenic assay); assay type: biochemical; settings: sPLA2 50 ng/well, 40° C., 30 minutes, OD 405 nm, 96 well microtiterplate
T1 sequence (P14555 21-144): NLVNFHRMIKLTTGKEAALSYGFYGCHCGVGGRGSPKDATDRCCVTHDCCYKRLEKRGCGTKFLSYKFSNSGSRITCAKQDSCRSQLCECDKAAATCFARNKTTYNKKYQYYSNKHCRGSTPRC
Text: Test Example: Inhibition Test of Human Secretory Phospholipase A2
In order to identify and evaluate an inhibitor of recombinant human secretory phospholipase A2, the following chromogenic assay is utilized. The assay herein has been applied for high volume screening wherein 96 well microtiterplate is used. A general explanation for such assay is described in “Analysis of Human Synovial Fluid Phospholipase A2 on Short Chain Phosphatidylcholine-Mixed Micelles: Development of a Spectrophotometric Assay Suitable for a Micortiterplate Reader” (Analytical Biochemistry, 204, pp 190-197, 1992 by Laure. J. Reynolds. Lori L. Hughes and Edward A. Dennis: the disclosure of which is incorporated herein for reference.
pH 7.5 (adjusted with NaOH)
pH 4.5 (adjusted with acetic acid)
1 mg of sPLA2 is dissolved in 1 ml of an enzyme buffer. Thereafter, the solution is maintained at 4° C.
In the assay, 5 μl of the solution is diluted with 1995 μl of the reaction buffer to be used.
198 mg of 5,5′-dithiobis-2-[…] (manufactured by Wako Pure Chemicals) is dissolved in 100 ml of H2O
H 7.5 (adjusted with NaOH)
100 mg of racemic 1,2-bis(heptanoylthio)-1,2-dideoxy-sn-glycero-3-phospholylcholine is dissolved in 1 ml of chloroform.
624.9 mg of Triton-X 100 is dissolved in the reaction buffer.
Enzyme Reaction: for 1 Plate of Microtiterplate
1) 0.106 ml of the substrate solution is put in a centrifugal tube, and nitrogen gas is jetted to remove the solvent. 0.54 ml of Triton-X 100 is added thereto, the mixture is stirred, thereafter it is sonified in a bath type sonification to dissolve. To the resulting product are added 17.8 ml of the reaction buffer and 0.46 ml of DTNB, and 0.18 ml each of the admixture is poured to wells of the 96 well microtiterplate.
2) 10 μl of a test compound (or solvent blank) are added in accordance with alignment of plates which has been previously set.
3) Incubation is effected at 40° C. for 15 minutes.
4) 20μl of an enzyme solution (sPLA2) which has been previously diluted (50 ng/well) are added to start reaction (40° C., 30 minutes).
5) Changes in absorbancy for 30 minutes are measured by a plate reader, and inhibition activity was calculated (OD: 405 nm).
6) IC50 was determined by plotting log concentration with respect to inhibition values within 10% to 90% inhibiting range.

| SMILES | melting point | IC50 [1] |
| --- | --- | --- |
| CCc1c(C(=O)C(N)=O)c2c(OCC(=O)O)nc(C)cn2c1Cc1ccc(F)cc1 (as salt: Na) [Compound I-99] | 250 to 265 °C |  |
| CCc1c(C(=O)C(N)=O)c2c(OCC(=O)O)nc(C)cn2c1Cc1ccccc1-c1ccsc1 (as salt: Na) [Compound I-102] | 260 to 263 °C |  |
| CCc1c(C(=O)C(N)=O)c2c(OCC(=O)OC)nccn2c1Cc1ccccc1 [Compound I-1] | 151 to 152 °C | 208 nM |
| CCc1c(C(=O)C(N)=O)c2c(OCC(=O)O)nccn2c1Cc1ccccc1 [Compound I-2, [6-Benzyl-7-ethyl-8-oxamoylpyrrolo[1,2-a]pyrazin-1-yl]oxyacetic acid] |  | 11 nM |
| COC(=O)COc1nccn2c(Cc3ccccc3)c(C3CC3)c(C(=O)C(N)=O)c12 [Compound I-3] | 177 to 179 °C | 2620 nM |
| NC(=O)C(=O)c1c(C2CC2)c(Cc2ccccc2)n2ccnc(OCC(=O)O)c12 [Compound I-4] | 189 to 191 °C | 35 nM |
| CCc1c(C(=O)C(N)=O)c2c(OCC(=O)OC)nccn2c1Cc1cccs1 [Compound I-5] | 165 to 166 °C | 314 nM |
| CCc1c(C(=O)C(N)=O)c2c(OCC(=O)O)nccn2c1Cc1cccs1 [Compound I-6] | 225 to 227 °C | 9 nM |
| CCc1c(C(=O)C(N)=O)c2c(OCC(=O)OC)nccn2c1CC1CCCCC1 [Compound I-7] | 162 to 163 °C | 389 nM |
| CCc1c(C(=O)C(N)=O)c2c(OCC(=O)O)nccn2c1CC1CCCCC1 [Compound I-8] | 205 to 206 °C | 11 nM |
| CCc1c(C(=O)C(N)=O)c2c(OCC(=O)OC)nccn2c1Cc1cccc(OC)c1 [Compound I-9] | 154 to 155 °C | 435 nM |
| CCc1c(C(=O)C(N)=O)c2c(OCC(=O)O)nccn2c1Cc1cccc(OC)c1 [Compound I-10] | 196 to 197.5 °C | 14 nM |
| CCc1c(C(=O)C(N)=O)c2c(OCC(=O)OC)nccn2c1Cc1ccc2ccsc2c1 [Compound I-11] | 144 to 148 °C | 194 nM |
| CCc1c(C(=O)C(N)=O)c2c(OCC(=O)O)nccn2c1Cc1ccc2ccsc2c1 [Compound I-12] | 209 to 211 °C | 10 nM |
| COC(=O)COc1nccn2c(Cc3ccccc3)c(C)c(C(=O)C(N)=O)c12 [Compound I-13] | 182 to 183 °C | 157 nM |
| Cc1c(C(=O)C(N)=O)c2c(OCC(=O)O)nccn2c1Cc1ccccc1 [Compound I-14] | 207 to 208 °C | 11 nM |
| CCc1c(C(=O)C(N)=O)c2c(OCC(=O)OC)nccn2c1CC1CCCC1 [Compound I-15] | 165 to 166 °C | 512 nM |
| CCc1c(C(=O)C(N)=O)c2c(OCC(=O)O)nccn2c1CC1CCCC1 [Compound I-16] | 203 to 205 °C | 6 nM |
| CCc1c(C(=O)C(N)=O)c2c(OCC(=O)OC)nc(C)cn2c1Cc1ccccc1 [Compound I-17] | 192 to 194 °C | 172 nM |
| CCc1c(C(=O)C(N)=O)c2c(OCC(=O)O)nc(C)cn2c1Cc1ccccc1 [Compound I-18, [6-Benzyl-7-ethyl-3-methyl-8-oxamoylpyrrolo[1,2-a]pyrazin-1-yl]oxyacetic acid] | 207 to 208 °C | 9 nM |
| CCc1c(C(=O)C(N)=O)c2c(OCC(=O)OC)nc(C)cn2c1Cc1ccc(F)cc1 [Compound I-19] | 167 to 168 °C | 562 nM |
| CCc1c(C(=O)C(N)=O)c2c(OCC(=O)O)nc(C)cn2c1Cc1ccc(F)cc1 [Compound I-20] | 204 to 205 °C |  |
| CCc1c(C(=O)C(N)=O)c2c(OCC(=O)OC)nc(C)cn2c1Cc1ccccc1-c1ccccc1 [Compound I-21] | 164.5 to 165.5 °C | 41 nM |
| CCc1c(C(=O)C(N)=O)c2c(OCC(=O)O)nc(C)cn2c1Cc1ccccc1-c1ccccc1 [Compound I-22, [6-(2-Biphenylmethyl)-7-ethyl-3-methyl-8-oxamoylpyrrolo [1,2-a]pyrazin-1-yl]oxyacetic acid] | 192 to 194 °C | 8 nM |
| CCc1c(C(=O)C(N)=O)c2c(OCC(=O)OC)nc(C)cn2c1CC1CCCC1 [Compound I-23] | 135 to 136.5 °C | 651 nM |

| SMILES | melting point | IC50 [1] |
| --- | --- | --- |
| CCc1c(C(=O)C(N)=O)c2c(OCC(=O)O)nc(C)cn2c1CC1CCCC1 [Compound I-24] | 192 to 193 °C | 17 nM |
| CCc1c(C(=O)C(N)=O)c2c(OCC(=O)OC)nc(C)cn2c1Cc1ccccc1F [Compound I-25] | 187 to 188 °C | 196 nM |
| CCc1c(C(=O)C(N)=O)c2c(OCC(=O)O)nc(C)cn2c1Cc1ccccc1F [Compound I-26] | 218 to 219 °C | 12 nM |
| CCc1c(C(=O)C(N)=O)c2c(OCC(=O)OC)nc(C)cn2c1Cc1ccccc1Cc1ccccc1 [Compound I-27] | 134.5 to 136 °C | 22 nM |
| CCc1c(C(=O)C(N)=O)c2c(OCC(=O)O)nc(C)cn2c1Cc1ccccc1Cc1ccccc1 [Compound I-28] | 180.5 to 182.5 °C | 7 nM |
| CCc1c(C(=O)C(N)=O)c2c(OCC(=O)OC)nc(C)cn2c1Cc1ccccc1-c1ccc(F)cc1 [Compound I-29] | 147 to 149 °C | 56 nM |
| CCc1c(C(=O)C(N)=O)c2c(OCC(=O)O)nc(C)cn2c1Cc1ccccc1-c1ccc(F)cc1 [Compound I-30] | 175 to 177 °C | 8 nM |
| CCc1c(C(=O)C(N)=O)c2c(OCC(=O)OC)nc(C)cn2c1Cc1ccc(F)cc1F [Compound I-31] | 161 to 163 °C | 1170 nM |
| CCc1c(C(=O)C(N)=O)c2c(OCC(=O)O)nc(C)cn2c1Cc1ccc(F)cc1F [Compound I-32] | 208 to 210 °C | 28 nM |
| CCc1c(C(=O)C(N)=O)c2c(OCC(=O)O)nc(C)cn2c1Cc1ccccc1-c1cccs1 [Compound I-52, [7-Ethyl-3-methyl-8-oxamoyl-6-(2-(2-thienyl)benzyl)pyrrolo[1,2-a]pyrazin-1-yl]oxyacetic acid] |  | 5 nM |
| CCc1c(C(=O)C(N)=O)c2c(OCC(=O)O)nc(C)cn2c1Cc1ccccc1C#Cc1ccccc1 [Compound I-54, [7-Ethyl-3-methyl-8-oxamoyl-6-(2-phenylethynylbenzyl)pyrrolo [1,2-a]pyrazin-1-yl]oxyacetic acid] |  | 6 nM |
| CCc1c(C(=O)C(N)=O)c2c(SCC(=O)O)nc(C)cn2c1Cc1ccccc1-c1ccc(F)cc1 [Compound I-58] |  | 25 nM |
| COC(=O)COc1nc(C)c(Cc2ccc(F)cc2)n2cc(C)c(C(=O)C(N)=O)c12 [Compound I-59] |  | 15800 nM |
| Cc1cn2c(Cc3ccc(F)cc3)c(C)nc(OCC(=O)O)c2c1C(=O)C(N)=O [Compound I-60] |  | 1210 nM |
| CCc1c(C(=O)C(N)=O)c2c(OCC(=O)OC)nc(C)cn2c1Cc1ccccc1-c1cccnc1 [Compound I-65] |  | 1550 nM |
| CCc1c(C(=O)C(N)=O)c2c(OCC(=O)O)nc(C)cn2c1Cc1ccccc1-c1cccnc1 [Compound I-66] |  | 45 nM |
| CCc1c(C(=O)C(N)=O)c2c(OCC(=O)OC)nc(C)cn2c1Cc1ccccc1-c1ccc(OC)cc1 [Compound I-67] |  | 57 nM |
| CCc1c(C(=O)C(N)=O)c2c(OCC(=O)O)nc(C)cn2c1Cc1ccccc1-c1ccc(OC)cc1 [Compound I-68] |  | 8 nM |
| CCc1c(C(=O)C(N)=O)c2c(OCC(=O)OCCN3CCOCC3)nc(C)cn2c1Cc1ccccc1-c1ccc(F)cc1 [Compound I-96] |  | 77 nM |
| CCc1c(C(=O)C(N)=O)c2c(OCC(=O)OCCN3CCOCC3)nc(C)cn2c1Cc1ccccc1-c1cccs1 [Compound I-97] |  | 78 nM |
| CCc1c(C(=O)C(N)=O)c2c(OCC(=O)O)nc(C)cn2c1Cc1ccc(F)cc1 [Compound I-99] |  | 21 nM |
| CCc1c(C(=O)C(N)=O)c2c(OCC(=O)O)nc(C)cn2c1Cc1ccccc1-c1ccc(F)cc1 [Compound I-100] |  | 21 nM |
| CCc1c(C(=O)C(N)=O)c2c(OCC(=O)O)nc(C)cn2c1Cc1ccccc1-c1cccs1 [Compound I-101] |  | 19 nM |
| CCc1c(C(=O)C(N)=O)c2c(OCC(=O)O)nc(C)cn2c1Cc1ccccc1-c1ccsc1 [Compound I-102] |  | 20 nM |
